The record followed here is US20180171411A1, “GFRalpha1 AS A BIOMARKER FOR CISPLATIN-INDUCED CHEMORESISTANCE AND METASTASIS” (THE BOARD OF REGENTS OF THE UNIVERSITY OF TEXAS SYSTEM, priority 2015, published 2018).

In assay [1] the test system is GFRα1-deficient MG-63 and U-2 OS cells. The assay is described as follows: WST-1 cell viability of GFRα1-deficient (siRNA) osteosarcoma cells. The assay is classed as cell-based, human. To be noted: GFRα1 siRNA 48 h, then agent 24 h. As to the method: FIG. 6. Cell viability of GFRα1-deficient osteosarcoma cells after treatment of chemotherapeutic agents. MG-63 and U-2 OS cells were transfected with either control siRNA or GFRα1 siRNA for 48 h and then treated with different concentrations of doxorubicin, cisplatin, or methotrexate for 24 h. Cell viability was measured using the WST-1 assay. The values are represented as a mean±s.d.m. (n=3). ** denotes P<0.05 by t-test. (a) MG-63 cells. (b) U-2 OS cells.
Small interfering RNA (siRNA)-based Experiments. Human GFRα1 siRNA, Beclin 1 siRNA, HMGB1 siRNA, AMPK siRNA, c-Src siRNA, NFκB p50 siRNA, APE siRNA and Negative (control) siRNA were purchased from Santa Cruz Biotechnology. Cell lines were transiently transfected with siRNA duplexes using Lipofectamine® RNAiMAX (Life Technologies) according to manufacturer's instructions.
Cell viability assays. WST-1 cell viability assay reagent was purchased from Roche. Equal numbers of cells were seeded in triplicate wells in 48-well plates and maintained in growth medium containing 10% FBS). Cells were cultured with PBS, GDNF (50 ng/mL), GDNF (50 ng/ml)+cisplatin (20 μM), or cisplatin (20 μM) in the presence of serum for 24 hr. Cells were also preincubated with inhibitors (3-MA, PP1, Compound C, Baf and CQ) for 1 hr before stimulating with PBS, GDNF, GDNF+cisplatin, or cisplatin. WST-1 reagent was then treated to the cells at the indicated times and incubated for 2 hr at 37° C. Cell viability was determined by measuring the absorbance after adding WST-1. The spectrophotometric absorbance of the samples was measured using an Ultra Multifunctional Microplate Reader (Tecan, Durham, N.C.) at 450 nm. Experiments were done at least in triplicate using separate cultures.

The subject of assay [2] is GFRα1-overexpressing MG-63 cells. Put plainly: WST-1 cell viability of GFRα1-overexpressing osteosarcoma cells. Type of assay: cell-based, human. The procedure:
FIG. 3. GFRα1-induced autophagy enhances the chemoresistance of osteosarcoma cells induced by cisplatin. (a) Control and GFRα1-deficient MG-63 cells were transiently transfected with a mRFP-GFP tandem fluorescent-tagged LC3 (mRFP-GFP-LC3) vector and then treated with cisplatin (20μM) for 24 hr. Left, representative images of RFP-LC3 and GFP-LC3 puncta. Scale bar, 20 μm. Right, quantitative analysis of the number of yellow puncta and the number of RFP-LC3 puncta in the combined images. The values are represented as a mean±s.d.m. (n=3). ** denotes p<0.05 by t-test. (b) Control and GFRα1-deficient MG-63 cells were treated with cisplatin (20 μM) for 24 hr and then stained with acridine orange. Top, representative images of cells stained with acridine orange. Scale bar, 20 μm. Bottom, quantitative analysis of the number of AVOs. The values are represented as a mean±s.d.m. (n=3). ** denotes p<0.05 by t-test. (c) Control and GFRα1-deficient MG-63 cells were treated with cisplatin (20 μM) for 24 hr and then analyzed by TEM. Top, representative images of autophagic vacuoles (yellow arrows) detected after cisplatin treatment in control MG-63 cells. Scale bar, 100 nm. Bottom, quantitative analysis of the number of autophagic vacuoles. The values are represented as a mean±s.d.m. (n=3). ** denotes p<0.05 by t-test. (d) Immunoblot analysis of control and GFRα1-overexpressing osteosarcoma cell lysates with antibodies specific for GFRα1, LC3 and β-actin. […] (e) Quantitative analysis of the number of yellow puncta and the number of RFP-LC3 puncta in control and GFRα1-overexpressing MG-63 cells. […] Bottom, quantitative analysis of the number of AVOs. […] (h) Control and GFRα1-overexpressing MG-63 cells were treated with cisplatin (20 μM) for 24 hr and then analyzed by TEM. Top, representative images of autophagic vacuoles detected after cisplatin treatment in control and GFRα1-overexpressing MG-63 cells. […] Bottom, quantitative analysis of the number of autophagic vacuoles. […] Cell viability was measured using the WST-1 assay. […] Cell viability was measured using the WST-1 assay. […]

Take `N.N.[Cl][Pt][Cl]` [cisplatin, Cis-Diamineplatinum(II) dichloride]: the “cell proliferation of GFRα1-deficient cells compared to control cells” value in assay [1] is listed as “significantly reduced”.
With `Cn1cnc(N)c2ncnc1-2` [3-MA, 3-methyladenine], the “increase of cell proliferation in GFRα1 overexpressing cells” value in assay [2] (with DMSO, 3-MA or Baf, then cisplatin 20 μM 24 hr) was “blocked”.

B1: GDNF: glial cell line-derived neurotrophic factor, the major ligand of GFRα1 (protein, UniProt P39905 78-211, looked up)
Glial cell line-derived …: SPDKQMAVLPRRERNRQAAAANPENSRGKGRRGQRGKNRGCVLTAIHLNVTDLGLGYETKEELIFRYCSGSCDAAETTYDKILKNLSRNRRLVSDKVGQACCRPIAFDDDLSFLDDNLVYHILRKHSAKRCGCI
As to B1, in assay [2] (Cisplatin+GDNF (50 ng/ml), 24 h), the “GFRα1-mediated cell survival after cisplatin treatment” value is reported as “did not have an effect”.
